Measured values reported in US5744462A, “Steroids useful as anti-cancer and anti-obesity agents” (Research Corporation Technologies, Inc., priority 1995, dated 1998).
“Also recorded” adds a separate entry of the source.

Tests used:
[1] = Body weight and food consumption in the DMBA binding experiment; format: in vivo, mouse; settings: two weeks of feeding
Procedure: Binding of [^3 H]DMBA to mouse skin DNA was determined as described in Pashko, L. L., and Schwartz, A. G. (1983), Effect of food restriction, dehydroepiandrosterone, or obesity on the binding of ^3 H-7,12-dimethylbenz(a)anthracene to mouse skin DNA, J. Gerontol., 38, 8-12. Values are mean±SD for 3 individual determinations, with pooled tissue from 2 mice used for each determination. DHEA or testosterone (400 ug in 0.2 ml acetone) was applied to the skin one hour before [^3 H]DMBA. The mean weight of the food restricted mice was 18.5±1.0 gm, n=6, of the ad libitum fed, 27.4±1.0 gm, n=6, of the ad libitum fed treated with DHEA, 28.2±0.9 gm, n=6, and of the ad libitum fed treated with testosterone, 28.3±0.9 gm, n=6, following two weeks of feeding. The average food consumed was, in gm/mouse/day, 2.2, 3.8, 3.8 and 4.0 for the food restricted, ad libitum fed, ad libitum fed plus DHEA, and ad libitum fed plus testosterone groups, respectively.

[2] = cited from earlier work
[3] = C3H mice, cited from earlier work
HeLa cell strain, TCRC-2 = settings: cited from earlier work
[4] = in vivo; cited from earlier work
[5] = test system: mammalian glucose-6-phosphate dehydrogenase (G6PDH); settings: cited from earlier work
[6] = DMBA-initiated and TPA-promoted; cited from earlier work
[7] = topical, complete carcinogenesis model; cited from earlier work
[8] = Liver weight after three weeks of diet treatment; format: in vivo, mouse (female Balb/c); settings: 0.25% of diet
Procedure: Female Balb/c mice were housed in polycarbonate cages (6/mice/cage) in animal quarters maintained at 24°±1° C. with 12 hours of light and 12 hours of dark each day. The mice were placed on a diet containing either DHEA, 8354, A, B clofibrate or with no addition. Three weeks later the mice were killed, the livers were perfused with cold saline, weighed, and 5% liver homogenates were prepared for the determination of catalase activity by the spectrophotometric method of Luck (H. Luck, in Method in Enzyme Analysis, H. U. Bergmeyer, Ed. (Verlag Chemie, Weinheim/Bergstrasse, Germany, 1965)). Total protein was measured by the method of Lowry, et al. (O. H. Lowry, N. J. Rosebrough, A. L. Farr, R. J. Randall, J. Biol. Chem., 193, 265 (1951)).

[9] = Anti-obesity action, body weight, male A/J mice; format: in vivo, mouse (male A/J); settings: 0.45% in diet
Procedure: Male A/J (5 weeks old) mice were obtained from the
Jackson Laboratory and were housed in polycarbonate cages (6
mice/cage) in animal quarters maintained at 24 ± 1° C. with 12
hours of light and 12 hours of darkness each day. One week
after arrival, the mice were placed on a diet containing
either DHEA, 8353, or without steroid. Animals were weighed

[10] = mouse, in vivo; cited from earlier work
[11] = test system: human lymphocytes (Epstein-Barr virus-induced transformation); settings: cited from earlier work
[12] = mouse, in vivo; cited from earlier work; remark: listed apart in the source
[13] = daily approximately 400 mg/kg, long-term; cited from earlier work

C[C@]12CC[C@H](O)CC1=CC[C@@H]1[C@@H]2CC[C@]2(C)C(=O)CC[C@@H]12 [DHEA, Dehydroepiandrosterone]
mean body weight ([1]; topical 400 ug, ad libitum fed 27.4±1.0): 28.2±0.9 gm | average food consumed ([1]; ad libitum fed 3.8): 3.8 gm/mouse/day | enzyme-positive premalignant foci in the liver ([2]; 0.6%, 20-22 weeks, after 4 injections of carcinogen): inhibited the formation of enzyme-positive premalignant foci in the liver | liver basophilic lesions, enzyme-negative ([2]; after carcinogen): promoted the development of liver basophilic lesions which were enzyme-negative | weight gain on long-term treatment [3]: reducing weight gain without suppressing appetite | spontaneous breast cancer development ([3]; long-term treatment): markedly inhibits spontaneous breast cancer development | growth inhibition of HeLa TCRC-2 (HeLa cell strain, TCRC-2): particularly sensitive to DHEA-induced growth inhibition | reversal of growth inhibition by deoxynucleosides (HeLa cell strain, TCRC-2; mixture of deoxynucleosides of adenine, guanine, cytosine, thymine in medium): can be almost completely overcome | estrogenic effect after prolonged administration [4]: evidence of an estrogenic effect after prolonged administration | inhibition of mammalian G6PDH [5]: potent non-competitive inhibitor | skin papilloma formation [6]: inhibit | DMBA produced papillomas and carcinomas [7]: inhibits DMBA produced papillomas and carcinomas | LIVER WEIGHT ([8]; control 0.057 ± 0.006, DHEA p < 0.05, clofibrate p < 0.002 vs control): 0.074 ± 0.005 gm/gm body weight | liver weight, in words ([8]; mice): increased liver weight; also recorded: hepatomegaly | mean weekly weight ± S.D. ([9]; week 0, control 23 ± 1.5): 23.0 ± 1.5 grams | mean weekly weight ± S.D. ([9]; week 1, control 25.0 ± 1.6): 22.8 ± 1.5 grams | mean weekly weight ± S.D. ([9]; week 2, control 27.0 ± 1.6): 19.0 ± 1.5 grams | mean weekly weight ± S.D. ([9]; week 3, control 27.3 ± 1.6): 21.5 ± 1.1 grams | mean weekly weight ± S.D. ([9]; week 4, control 27.5 ± 1.9): 21.4 ± 1.2 grams | hypoglycemic effect [10]: marked hypoglycemic effect | inhibition of Epstein-Barr virus-induced transformation [11]: inhibitors of Epstein-Barr virus-induced transformation of human lymphocytes | anti-hypercholesterolemic effect [12]: anti-hypercholesterolemic effect | development of breast, lung, and colon tumors [13]: inhibit the development of breast, lung, and colon tumors
